Positions count from the first letter of the chain named.
Tests used:
Test in all cases: E. coli hemG growth inhibition by herbicide, AtPPO1 variant
Assay type in all cases: cell-based
Conditions in all cases: read-out: percentage growth inhibition
AtPPO1 V447C = molecular target: T1, AtPPO1 V447C (Arabidopsis thaliana, UniProt P55826, V447C)
T1 construct: expressed in transfected cells; host or cells: E. coli BL21(DE3) hemG (pET24a, T7 promoter)
T1 sequence (P55826 35-537 V447C): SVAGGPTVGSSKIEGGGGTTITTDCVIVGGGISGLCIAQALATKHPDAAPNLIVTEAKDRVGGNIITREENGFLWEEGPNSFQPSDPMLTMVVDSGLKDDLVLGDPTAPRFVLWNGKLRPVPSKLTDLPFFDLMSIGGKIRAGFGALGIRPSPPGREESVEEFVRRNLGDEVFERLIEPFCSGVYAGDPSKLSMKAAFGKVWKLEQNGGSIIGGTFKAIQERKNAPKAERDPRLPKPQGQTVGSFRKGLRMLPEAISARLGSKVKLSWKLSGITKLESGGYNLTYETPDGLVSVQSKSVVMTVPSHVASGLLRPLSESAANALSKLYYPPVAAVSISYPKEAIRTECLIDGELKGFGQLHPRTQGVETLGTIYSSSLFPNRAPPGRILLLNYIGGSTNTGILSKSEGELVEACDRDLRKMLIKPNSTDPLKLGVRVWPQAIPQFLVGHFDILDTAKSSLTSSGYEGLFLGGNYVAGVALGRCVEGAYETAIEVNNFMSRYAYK
Method in brief: (§1)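 Variant plasmids were transformed into hemG-null BL21(DE3) and precultured 24 h with hematin. Washed cells were diluted 1:100 into Terrific broth containing 0.1 mM IPTG and herbicide (6.25 ppm 0 or E; 0.78 ppm B) or DMSO. After 24 h at 37° C, OD600 gave percent inhibition.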

AtPPO1 R284G = molecular target: T2, AtPPO1 R284G (Arabidopsis thaliana, UniProt P55826, R284G)
T2 construct: expressed in transfected cells; host or cells: E. coli BL21(DE3) hemG (pET24a, T7 promoter)
T2 sequence (P55826 35-537 R284G): T1 sequence (P55826 35-537 V447C) with R250G, C413V
Method in brief: as §1

AtPPO1 V447I = molecular target: T3, AtPPO1 V447I (Arabidopsis thaliana, UniProt P55826, V447I)
T3 construct: expressed in transfected cells; host or cells: E. coli BL21(DE3) hemG (pET24a, T7 promoter)
T3 sequence (P55826 35-537 V447I): T1 sequence (P55826 35-537 V447C) with C413I
Method in brief: as §1

AtPPO1 V127I = molecular target: T4, AtPPO1 V127I (Arabidopsis thaliana, UniProt P55826, V127I)
T4 construct: expressed in transfected cells; host or cells: E. coli BL21(DE3) hemG (hemG replaced by CmR), pET24a plasmid
T4 sequence (P55826 35-537 V127I): T1 sequence (P55826 35-537 V447C) with V93I, C413V
Method in brief: as §1

Structure (SMILES) | inhibition at 0.78 ppm (AtPPO1 V447C) [%] | inhibition at 0.78 ppm (AtPPO1 R284G) [%] | inhibition at 0.78 ppm (AtPPO1 V447I) [%] | inhibition at 0.78 ppm (AtPPO1 V127I) [%] | inhibition at 6.25 ppm (AtPPO1 V447C) [%] | inhibition at 6.25 ppm (AtPPO1 R284G) [%] | inhibition at 6.25 ppm (AtPPO1 V447I) [%] | inhibition at 6.25 ppm (AtPPO1 V127I) [%]
C#CCN1C(=O)C(F)(F)Oc2cc(F)c(-n3c(=O)n(C)c(=S)n(C)c3=O)cc21 [Herbicide B, trifludimoxazin] | 34 | 35 | 35 | 28 |  |  |  | 
CCOC(=O)[C@]1(C)CC(c2cc(-n3c(=O)n(C)c(=S)n(C)c3=O)c(F)cc2Cl)=NO1 [Herbicide D, ethyl (5S)-3-[2-chloro-5-(3,5-dimethyl-2,6-dioxo-4-thioxo-1,3,5-triazinan-1-yl)-4-fluoro-phenyl]-5-methyl-4H-isoxazole-5-carboxylate] |  |  |  |  | 32 | 37 | 36 | 23
CC(C)N(C)S(=O)(=O)NC(=O)c1cc(-n2c(=O)cc(C(F)(F)F)n(C)c2=O)c(F)cc1Cl [Herbicide E, saflufenacil] |  |  |  |  | 53 | 60 | 61 | 69
